This passage reports EC50 results from patent US11505558B1, “Antiviral heterocyclic compounds” (Enanta Pharmaceuticals, Inc., priority 2019, dated 2022).

A value given as a limit tells only on which side of the number the result lay.

This test has as its system genotype A, "Long" strain RSV. Kind of test: RSV-A assay (CPE, ATPlite readout in Hep-2 cells). Type of test: cell-based. The settings on record: human respiratory syncytial virus, HEp-2, Hep-2 cells, genotype A "Long" strain RSV, MOI 0.1; read-out: Human RSV-A (“Long” strain) EC50. The text has this:
Hep-2 cells, (originally derived from tumors grown in irradiated-cortisonised weanling rats that had been injected with epidermoid carcinoma tissue from a person's larynx, but later found to be indistinguishable from HeLa cells by PCR DNA analysis), were used for the culturing of genotype A, “Long” strain RSV. Flasks were inoculated with RSV and viral stocks were collected once cytopathic effect (CPE) was greater than […]. Viral stocks in […] sucrose media were snap frozen using liquid nitrogen to increase viral stability. Viral stock titers were quantified by tissue culture infectious dose 50% (TCID50) using 8,000 cells per well and 3-fold viral dilutions across a 96-well plate, cultured for 4 days. Viral stock titers were also quantified by a plaque forming unit assay, as described elsewhere.
Following extensive parameter testing, the final assay is run as follows: Hep-2 cells are seeded into the inner 60 wells of a 96-well plate at 8,000 cells per well in a volume of 50 μL using Growth Media (DMEM without phenol red, 1% L-Glut, 1% Penn/Strep, 1% nonessential amino acids, 10% heat-inactivated FBS). 2-fold serial dilutions of control and test compounds are added to the wells in duplicate in a total volume of 25 μL. Viral stock is then added to the wells at a multiplicity of infection (MOI) of 0.1 in a volume of 25 μL, bringing the total volume of each well to 100 μL. The MOI is calculated using the PFU/mL, or TCID50 if unavailable. Each 96-well plate has a control column of 6 wells with cells and virus but no compound (negative control, max CPE), a column with cells but no compound or virus (positive control, minimum CPE), and a column with no cells or virus or compound (background plate/reagent control). The control wells with cells but no virus are given an additional 25 μL of growth media containing an equal quantity of sucrose as those wells receiving the viral stock in order to keep consistent in media and volume conditions. The outer wells of the plate are filled with 125 μL of moat media (DMEM, 1% Penn/Strep) to act as a thermal and evaporative moat around the test wells. Following a 5-day incubation period, the plates are read using ATPlite (50 uL added per well), which quantifies the amount of ATP (a measure of cell health) present in each well. Assay plates are read using the Envision luminometer. […] EC50 ranges are as follows: A<0.2 μM; B>0.2 μM.
For orientation: In ATP-based viability assays light output follows the ATP content of the culture.
With `C[C@]1(C(N)=O)COc2c1cc([C@@](O)(CNC(=O)c1ccc(OC3CC3)c(-c3ccnc(C(F)(F)F)c3)c1)C(F)(F)F)nc2-c1ccc(F)cc1` [Example 105], the EC50 (as a rule, the midpoint of the concentration-response curve) was > 200 nM.

Take `C[C@]1(C(N)=O)COc2c1cc([C@@](O)(CNC(=O)c1ccc(OC3CC3)c(-c3ccccn3)c1)C(F)(F)F)nc2-c1ccc(F)cc1` [Example 106]: the EC50 is < 200 nM.

For the compound `Cc1ccc(-c2cc(C(=O)NC[C@](O)(c3cc4c(c(-c5ccc(F)cc5)n3)OC[C@]4(C)C(N)=O)C(F)(F)F)ccc2OC2CC2)nc1` [Example 107], the EC50 is > 200 nM.

In the case of `C[C@]1(C(N)=O)COc2c1cc([C@@](O)(CNC(=O)c1ccc(OC3CC3)c(-c3ccc(C(F)(F)F)cn3)c1)C(F)(F)F)nc2-c1ccc(F)cc1` [Example 108], the EC50 is > 200 nM.

In the case of `Cc1cccc(-c2cc(C(=O)NC[C@](O)(c3cc4c(c(-c5ccc(F)cc5)n3)OC[C@]4(C)C(N)=O)C(F)(F)F)ccc2OC2CC2)n1` [Example 109], the EC50 is < 200 nM.

As to `C[C@]1(C(N)=O)COc2c1cc([C@@](O)(CNC(=O)c1ccc(OC3CC3)c(-c3cnc(C(F)(F)F)nc3)c1)C(F)(F)F)nc2-c1ccc(F)cc1` [Example 111], the concentration giving a half-maximal response (EC50) was > 200 nM.

Consider `C[C@]1(C(N)=O)COc2c1cc([C@@](O)(CNC(=O)c1ccc(OC3CC3)c(-c3cnc(C4CC4)nc3)c1)C(F)(F)F)nc2-c1ccc(F)cc1` [Example 112], for which the EC50 is < 200 nM.

Turning to `C[C@]1(C(N)=O)COc2c1cc([C@@](O)(CNC(=O)c1ccc(OC3CC3)c(-c3ccncc3C(F)(F)F)c1)C(F)(F)F)nc2-c1ccc(F)cc1` [Example 113], the EC50 is > 200 nM.

Consider `Cc1cnc(-c2cc(C(=O)NC[C@](O)(c3cc4c(c(-c5ccc(F)cc5)n3)OC[C@]4(C)C(N)=O)C(F)(F)F)ccc2OC2CC2)cn1` [Example 115], for which the EC50 is < 200 nM.

`Cc1cnccc1-c1cc(C(=O)NC[C@](O)(c2cc3c(c(-c4ccc(F)cc4)n2)OC[C@]3(C)C(N)=O)C(F)(F)F)ccc1OC1CC1` [Example 117]: the EC50 is > 200 nM.

With `C[C@]1(C(N)=O)COc2c1cc([C@@](O)(CNC(=O)c1ccc(OC3CC3)c(-c3ccc(C(F)(F)F)nc3)c1)C(F)(F)F)nc2-c1ccc(F)cc1` [Example 118], the EC50 is > 200 nM.

As for `C[C@]1(C(N)=O)COc2c1cc([C@@](O)(CNC(=O)c1ccc(OC3CC3)c(-c3ccncc3)c1)C(F)(F)F)nc2-c1ccc(F)cc1` [Example 119], the EC50 was > 200 nM.

On to `Cc1cc(-c2cc(C(=O)NC[C@](O)(c3cc4c(c(-c5ccc(F)cc5)n3)OC[C@]4(C)C(N)=O)C(F)(F)F)ccc2OC2CC2)ccn1` [Example 120], for which the EC50 is < 200 nM.

`Cc1noc(C)c1-c1cc(C(=O)NC[C@](O)(c2cc3c(c(-c4ccc(F)cc4)n2)OC[C@]3(C)C(N)=O)C(F)(F)F)ccc1OC1CC1` [Example 121]: the EC50 is > 200 nM.

On to `C[C@]1(C(N)=O)COc2c1cc([C@@](O)(CNC(=O)c1ccc(OC3CC3)c(C3=CCOCC3)c1)C(F)(F)F)nc2-c1ccc(F)cc1` [Example 122], for which the EC50 is < 200 nM.

With `C[C@]1(C(N)=O)COc2c1cc([C@@](O)(CNC(=O)c1ccc(OC3CC3)c(-c3nccs3)c1)C(F)(F)F)nc2-c1ccc(F)cc1` [Example 125], the EC50 was < 200 nM.

In the case of `C[C@]1(C(N)=O)COc2c1cc([C@@](O)(CNC(=O)c1ccc(OC3CC3)c(-c3cscn3)c1)C(F)(F)F)nc2-c1ccc(F)cc1` [Example 128], the EC50 is < 200 nM.

Consider `C[C@]1(C(N)=O)COc2c1cc([C@@](O)(CNC(=O)c1ccc(OC3CC3)c(-c3cncs3)c1)C(F)(F)F)nc2-c1ccc(F)cc1` [Example 129], for which the EC50 was < 200 nM.

As for `COc1ncc(-c2cc(C(=O)NC[C@](O)(c3cc4c(c(-c5ccc(F)cc5)n3)OC[C@]4(C)C(N)=O)C(F)(F)F)ccc2OC2CC2)s1` [Example 130], the EC50 is > 200 nM.

Take `CCc1ncc(-c2cc(C(=O)NC[C@](O)(c3cc4c(c(-c5ccc(F)cc5)n3)OC[C@]4(C)C(N)=O)C(F)(F)F)ccc2OC2CC2)cn1` [Example 131]: the EC50 is < 200 nM.

For the compound `C[C@]1(C(N)=O)COc2c1cc([C@@](O)(CNC(=O)c1ccc(OC3CC3)c(-c3ccc(=O)[nH]c3)c1)C(F)(F)F)nc2-c1ccc(F)cc1` [Example 132], the EC50 is > 200 nM.

Regarding `C[C@]1(C(N)=O)COc2c1cc([C@@](O)(CNC(=O)c1ccc(OC3CC3)c(N3CCOCC3)c1)C(F)(F)F)nc2-c1ccc(F)cc1` [Example 133], the EC50 was < 200 nM.

In the case of `C[C@]1(C(N)=O)COc2c1cc([C@@](O)(CNC(=O)c1ccc(OC3CC3)c(N3CCCCC3)c1)C(F)(F)F)nc2-c1ccc(F)cc1` [Example 134], the EC50 is > 200 nM.

With `C[C@]1(C(N)=O)COc2c1cc([C@@](O)(CNC(=O)c1ccc(OC3CC3)c(-c3ccnnc3)c1)C(F)(F)F)nc2-c1ccc(F)cc1` [Example 135], the EC50 was < 200 nM.

Regarding `C[C@]1(C(N)=O)COc2c1cc([C@@](O)(CNC(=O)c1ccc(OC3CC3)c(-c3cccnc3C(F)(F)F)c1)C(F)(F)F)nc2-c1ccc(F)cc1` [Example 138], the EC50 is < 200 nM.

With `C[C@]1(C(N)=O)COc2c1cc([C@@](O)(CNC(=O)c1ccc(OC3CC3)c(-c3cnccc3C(F)(F)F)c1)C(F)(F)F)nc2-c1ccc(F)cc1` [Example 139], the EC50 is > 200 nM.

As for `C[C@]1(C(N)=O)COc2c1cc([C@@](O)(CNC(=O)c1ccc(-c3cccnc3)c(OC3CC3)c1)C(F)(F)F)nc2-c1ccc(F)cc1` [Example 141], the EC50 is < 200 nM.

As to `Cc1cncc(-c2ccc(C(=O)NC[C@](O)(c3cc4c(c(-c5ccc(F)cc5)n3)OC[C@]4(C)C(N)=O)C(F)(F)F)cc2OC2CC2)c1` [Example 142], the EC50 is > 200 nM.

As for `C[C@]1(C(N)=O)COc2c1cc([C@@](O)(CNC(=O)c1ccc(-c3cncc(C(F)(F)F)c3)c(OC3CC3)c1)C(F)(F)F)nc2-c1ccc(F)cc1` [Example 143], the EC50 is > 200 nM.

For the compound `Cc1ncccc1-c1ccc(C(=O)NC[C@](O)(c2cc3c(c(-c4ccc(F)cc4)n2)OC[C@]3(C)C(N)=O)C(F)(F)F)cc1OC1CC1` [Example 144], the concentration giving a half-maximal response (EC50) is > 200 nM.

As for `C[C@]1(C(N)=O)COc2c1cc([C@@](O)(CNC(=O)c1ccc(-c3cccnc3C(F)(F)F)c(OC3CC3)c1)C(F)(F)F)nc2-c1ccc(F)cc1` [Example 145], the EC50 is > 200 nM.

Regarding `Cc1ccc(-c2ccc(C(=O)NC[C@](O)(c3cc4c(c(-c5ccc(F)cc5)n3)OC[C@]4(C)C(N)=O)C(F)(F)F)cc2OC2CC2)cn1` [Example 146], the EC50 was > 200 nM.

Take `C[C@]1(C(N)=O)COc2c1cc([C@@](O)(CNC(=O)c1ccc(-c3ccc(C(F)(F)F)nc3)c(OC3CC3)c1)C(F)(F)F)nc2-c1ccc(F)cc1` [Example 147]: the half-maximal effective concentration (EC50) is > 200 nM.

Take `Cc1ccncc1-c1ccc(C(=O)NC[C@](O)(c2cc3c(c(-c4ccc(F)cc4)n2)OC[C@]3(C)C(N)=O)C(F)(F)F)cc1OC1CC1` [Example 148]: the EC50 is > 200 nM.

`C[C@]1(C(N)=O)COc2c1cc([C@@](O)(CNC(=O)c1ccc(-c3cnccc3C(F)(F)F)c(OC3CC3)c1)C(F)(F)F)nc2-c1ccc(F)cc1` [Example 149]: the EC50 is > 200 nM.

Take `C[C@]1(C(N)=O)COc2c1cc([C@@](O)(CNC(=O)c1ccc(-c3ccncc3)c(OC3CC3)c1)C(F)(F)F)nc2-c1ccc(F)cc1` [Example 150]: the EC50 is < 200 nM.

Turning to `Cc1cc(-c2ccc(C(=O)NC[C@](O)(c3cc4c(c(-c5ccc(F)cc5)n3)OC[C@]4(C)C(N)=O)C(F)(F)F)cc2OC2CC2)ccn1` [Example 151], the EC50 is < 200 nM.

With `C[C@]1(C(N)=O)COc2c1cc([C@@](O)(CNC(=O)c1ccc(-c3ccnc(C(F)(F)F)c3)c(OC3CC3)c1)C(F)(F)F)nc2-c1ccc(F)cc1` [Example 152], the EC50 was > 200 nM.

As for `Cc1cnccc1-c1ccc(C(=O)NC[C@](O)(c2cc3c(c(-c4ccc(F)cc4)n2)OC[C@]3(C)C(N)=O)C(F)(F)F)cc1OC1CC1` [Example 153], the EC50 was > 200 nM.

In the case of `C[C@]1(C(N)=O)COc2c1cc([C@@](O)(CNC(=O)c1ccc(-c3ccncc3C(F)(F)F)c(OC3CC3)c1)C(F)(F)F)nc2-c1ccc(F)cc1` [Example 154], the EC50 was > 200 nM.

Consider `C[C@]1(C(N)=O)COc2c1cc([C@@](O)(CNC(=O)c1ccc(-c3ccccn3)c(OC3CC3)c1)C(F)(F)F)nc2-c1ccc(F)cc1` [Example 155], for which the EC50 was > 200 nM.

For `C[C@]1(C(N)=O)COc2c1cc([C@@](O)(CNC(=O)c1ccc(-c3ccc(C(F)(F)F)cn3)c(OC3CC3)c1)C(F)(F)F)nc2-c1ccc(F)cc1` [Example 156], the EC50 is > 200 nM.

Take `Cc1ccc(-c2ccc(C(=O)NC[C@](O)(c3cc4c(c(-c5ccc(F)cc5)n3)OC[C@]4(C)C(N)=O)C(F)(F)F)cc2OC2CC2)nc1` [Example 157]: the concentration for a half-maximal effect (EC50) is > 200 nM.
